The results in this text go back to patent US20080262025A1, “Processes for the Preparation of Zolpidem and its Hemitartrate” (priority 2004, published 2008).

Data set [1] in a line: Moisture content by Karl Fischer titration. In kind it is physicochemical. On the procedure: • Differential scanning calorimetry plots were recorded using the following instrument and parameters: • DSC821 e, Mettler Toledo • Sample weight: 8-10 mg • Temperature range: 25-300° C. • Heating rate: 10° C./min • Nitrogen 20.0 mL/min • Number of holes in the crucible: 1 (d) TGA analysis was carried out using Perkin Elmer Instrument (e) Moisture content determination was carried out by Karl-Fischer titration technique using Mettler instrument.

The nature of data set [2]: Hygroscopicity: moisture absorption on exposure to atmospheric / normal storage conditions, stability studies. In kind it is physicochemical. The conditions noted are these: for hygroscopicity: normal storage conditions / stability studies.

For the molecule `Cc1ccc(-c2nc3ccc(C)cn3c2CC(=O)N(C)C)cc1` [Form I, zolpidem hemitartrate], the “Moisture Content” value in data set [1] (product of Example 3, dried at 45 to 50° C. under reduced pressure) was found to be 2.33 % w/w. The hygroscopicity result in data set [2] is “non-hygroscopic”.
`Cc1ccc(-c2nc3ccc(C)cn3c2CC(=O)N(C)C)cc1` [Form A, zolpidem hemitartrate]: the “moisture content after absorption of water” value in data set [1] (TGA and Karl Fischer analysis, after absorption of water) is “up to 5%”. In data set [1] (TGA and Karl Fischer analysis, initially), the “moisture content, initial” value is given as “about 1.0 % w/w”. The “moisture absorbed after exposure to atmospheric conditions” value in data set [2] (after exposure to atmospheric conditions) was “up to 5 % w/w”. Moreover, in data set [2], the hygroscopicity entry is “very hygroscopic”.
